Results on 3 molecules are retold here after patent US20110092476A1, “Bicycloheteroaryl compounds as P2X7 modulators and uses thereof” (Renovis, Inc., priority 2006, published 2011).

pIC50: −log10 of the molar value. Read-outs that look alike come from different tables or passages of the source.

A short description of one series: in vitro. Particulars: human, microsomes, pH 7.4.
Series [1] in a line: Pharmacokinetic evaluation following intravenous and oral administration in rats (oral bioavailability). Format: in vivo, rat. Particulars: male Sprague-Dawley rats, PO 1 to 5 mg/kg vs IV 1 mg/kg, AUCinf dose-normalized. As for the experimental part:
Male Sprague-Dawley rats are acclimatized for at least 24 hours prior to experiment initiation. During acclimation period, all animals receive food and water ad libitum. However, food but not water is removed from the animal's cages at least 12 hours before initiation of the experiment. During the first 3 hours of experimentation, the animals receive only water ad libitum. At least three animals each are tested for intravenous and oral dosage. For intravenous formulation, compounds were dissolved (0.25 to 1 mg/mL) in a mixture of 3% dimethyl sulfoxide, 40% PEG 400 and the rest percentage of 40% Captisol in water (w/v). The animals are weighed before dosing. The determined body weight is used to calculate the dose volume for each animal.
Dose volume (mL/kg)=1 mg/kg/formulation concentration (mg/mL)
In instances where the formulation concentrations were less than 0.5 mg/mL, the dosing volume is about 2 mL/kg.
PO rats are typically dosed through oral gavage following the same dose volume formula as IV to achieve a dose level of 1 to 5 mg/kg. […] About 250 uL of blood is obtained at each time point from the animal. Equal volumes of 0.9% normal saline are replaced to prevent dehydration. The whole blood samples are maintained on ice until centrifugation. Blood samples are then centrifuged at 14,000 rpm for 10 minutes at 4° C. and the upper plasma layer transferred into a clean vial and stored at −80° C. The resulting plasma samples are then analyzed by liquid chromatography-tandem mass spectrometry. Following the measurement of plasma samples and dosing solutions, plasma concentration-time curve is plotted. Plasma exposure is calculated as the area under the concentration-time curve extrapolated to time infinite (AUinf). The AUCinf is averaged and the oral bioavailability (% F) for individual animal is calculated as:
AUCinf (PO)/AUCinf (IV), normalized to their respective dose levels. The % F is reported as the mean % F of all animals dosed orally with the compound of the invention at the specified level (see Table 4 below).
For the purpose of Table 4, oral bioavailability of each compound is expressed as follows: […]

The next series deals with T1, P2X7 receptor (Homo sapiens, UniProt Q99572).
T1 construct: host or cells: THP-1 cells differentiated with LPS and IFN-γ
T1 sequence (Q99572 1-595): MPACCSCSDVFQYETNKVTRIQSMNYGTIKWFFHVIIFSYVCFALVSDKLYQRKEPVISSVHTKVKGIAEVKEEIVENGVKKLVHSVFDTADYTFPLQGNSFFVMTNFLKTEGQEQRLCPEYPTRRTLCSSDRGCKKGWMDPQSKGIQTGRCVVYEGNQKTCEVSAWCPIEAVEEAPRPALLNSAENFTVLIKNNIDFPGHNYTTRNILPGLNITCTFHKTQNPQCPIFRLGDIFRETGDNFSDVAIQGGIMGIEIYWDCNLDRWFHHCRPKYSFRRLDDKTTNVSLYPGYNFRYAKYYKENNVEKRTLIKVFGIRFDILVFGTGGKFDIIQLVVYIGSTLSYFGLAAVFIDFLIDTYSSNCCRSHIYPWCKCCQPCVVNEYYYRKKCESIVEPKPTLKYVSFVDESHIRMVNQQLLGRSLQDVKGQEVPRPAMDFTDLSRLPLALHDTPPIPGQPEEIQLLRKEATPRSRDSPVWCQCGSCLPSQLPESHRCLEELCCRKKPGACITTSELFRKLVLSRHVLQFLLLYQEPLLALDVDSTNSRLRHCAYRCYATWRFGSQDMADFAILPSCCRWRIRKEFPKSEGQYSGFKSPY
Kind of series: IL-1β release assay in differentiated THP-1 cells stimulated with BzATP (Example 9). Format: cell-based. The essentials:
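THP-1 cells differentiated 16 h with 100 ng/mL LPS and 100 ng/mL IFN-γ, primed 2 h with fresh LPS, pretreated 30 min with compound, then stimulated 45 min with 250 uM BzATP (final). Supernatant IL-1β measured by ELISA; background-adjusted percent inhibition fitted to a four-parameter logistic for IC50.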

A short description of series [2]: Determination of aqueous (kinetic) solubility. Format: physicochemical. Particulars: aqueous buffer, kinetic from dmso stock, buffer pH 7.4. The protocol: The mixture was vortexed for 1 hour and equilibrated overnight at room temperature. The mixture was filtered through a saturated filter and the filtrate was analyzed by LC/MS/MS.
For the purpose of Table 5, solubility of each compound is expressed as follows: […]

Series [3] can be described thus: Half-life in human liver microsomes (HLM). Conditions: pH 7.4. In general terms: Liver microsomes are a subcellular fraction often used to study metabolism.
Procedure: (§1) Test compounds (1 μM) are incubated with 3.3 mM MgCl2 and 0.78 mg/mL HLM (HL101) in 100 mM potassium phosphate buffer (pH 7.4) at 37° C. on the 96-deep well plate. The reaction mixture is split into two groups, a non-P450 and a P450 group. NADPH is only added to the reaction mixture of the P450 group. An aliquot of samples of P450 group is collected at 0, 10, 30, and 60 min time point, where 0 min time point indicated the time when NADPH is added into the reaction mixture of P450 group. […] Collected aliquots are extracted with acetonitrile solution containing an internal standard. […] The compound concentration in supernatant is measured by LC/MS/MS system.
(§2) The half-life value is obtained by plotting the natural logarithm of the peak area ratio of compounds/internal standard versus time. The slope of the line of best fit through the points yields the rate of metabolism (k). This is converted to a half-life value using following equations:

Procedure for in vitro: as §1, §2

Turning to `O=C(Cc1ccc(C(F)(F)F)c(F)c1)Nc1c(Cl)ccc2c(=O)n(CCO)ccc12` [Compound 383], the half-life in “in vitro” was 3.65 h. Moreover, the “Oral Bioavailability F (%)” value in series [1] is on record as “++++ (>75% F)”. Further, at P2X7 receptor (0.3 μM compound, differentiated THP-1 cells, BzATP 250 uM, "+" symbols, read-out: IL-1β % Inhib. @ 0.3 or 0.1 uM), the inhibition at 0.3 µM was greater than 76%. Besides, in series [2], the solubility is less than 25 µM.
`Cc1ccc2c(=O)n([C@H](C)CO)ccc2c1NC(=O)Cc1ccc(C(F)(F)F)c(F)c1` [Compound 393, N-[6-Methyl-2-((R)-2-hydroxy-1-methyl-ethyl)-1-oxo-1,2-dihydro-isoquinolin-5-yl]-2-(3-fluoro-4-trifluoromethyl-phenyl)-acetamide] showed a half-life in “in vitro” of 1.45 h. In addition, the “Oral Bioavailability F (%)” value in series [1] is given as “+++ (51-75% F)”. Also, the inhibition at 0.3 µM at P2X7 receptor (THP-1, read-out: IL-1β % Inhib. @ 0.3 or 0.1 uM) is greater than 76%. The same molecule gave a negative logarithm of the IC50 (pIC50) on P2X7 receptor (THP-1 cells, BzATP 250 uM, IL-1β by ELISA) of 8.27. In series [2], the solubility is greater than 75 µM.
`Cc1ccc2c(=O)n(CCO)ccc2c1NC(=O)Cc1ccc(C(F)(F)F)c(F)c1` [Compound 400]: in series [1], the “Oral Bioavailability F (%)” value was “++ (26-50% F)”. In addition, on P2X7 receptor (differentiated THP-1 cells, BzATP 250 uM, "+" symbols = compound at 0.3 μM, read-out: IL-1β % Inhib. @ 0.3 or 0.1 uM), the inhibition at 0.3 µM was greater than 76%. Besides, in series [2], the solubility was greater than 75 µM. Besides, the half-life at 1 μM in series [3] was 3.73 h.

What is called half-life is how long it takes for the measured level to halve. Low values mean fast loss, high ones slow loss. The solubility is how much of the substance goes into solution per volume. Broadly, the pIC50 is the IC50 on a negative log10 scale, so that one unit is a factor of ten. A higher pIC50 goes with a small IC50.
